In ChEMBL document CHEMBL3885861, “Open TG-GATES”:

Species on record: Rattus norvegicus
Experiment: Open TG-GATES - Regimen: Daily Repeat
Format: toxicity, organism-based, Sprague-Dawley
Set-up: regimen Daily Repeat, gender Male, age 6 weeks
Settings: in vivo, po, route gavage; for gamma-GTP / ALP / ALT / AST / BUN / CRE / Ca / DBIL / GLC / IP / K / LDH / Na / PL / RALB / TBIL / TC / TG / TP: tissue Plasma; for APTT / Bas / Eos / Fbg / Hb / Ht / Lym / MCH / MCHC / MCV / Mono / Neu / PT / Plat / RBC / Ret / WBC: tissue Blood; for KIDNEY_L / KIDNEY_R / KIDNEY_TOTAL: tissue Kidney; for LIVER: tissue Liver
[1] = 30 mg/kg, 72 h, dose level Middle, time 3 day
[2] = 30 mg/kg, […], dose level Middle, time 7 day
[3] = 30 mg/kg, […], dose level Middle, time 14 day
[4] = 30 mg/kg, […], dose level Middle, time 28 day

In the case of CSc1ccc2c(c1)N(CCC1CCCCN1C)c1ccccc1S2 (stereo not drawn) [THIORIDAZINE], the gamma-GTP (10 mg/kg, […], dose level Low, time 28 day) is reported as 1.4 IU/L, the TERMINAL_BW [1] is reported as 234.2 g and the APTT [1] is reported as 15.8 s. It also gave a Bas [1] of 0%, an Eos [1] of 1% and a Fbg [1] of 219.8 mg/dL. For the same compound, the Hb [1] was 14.1 g/dL, the Ht [1] was 42.2% and the Lym [1] was 79.6%. The MCH [1] was 21.7 pg, the MCHC [1] was 33.4% and the MCV [1] was 64.9 fL. The Mono [1] was 7%, the Neu [1] was 12.6% and the PT [1] was 11.9 s. It also gave a Plat [1] of 110.7 x10_4/uL, an RBC [1] of 651 x10_4/ul and a Ret [1] of 8%. For the same compound, the WBC [1] was 122.3 x10_2/uL, the KIDNEY_L [1] was 1 g and the KIDNEY_R [1] was 1.1 g. It also gave a KIDNEY_TOTAL [1] of 2.1 g, an LIVER [1] of 12.3 g and an ALP [1] of 1002.8 IU/L. For the same compound, the ALT [1] was 44 IU/L, the AST [1] was 66.2 IU/L and the BUN [1] was 19 mg/dL. The CRE [1] was 0.5 mg/dL, the Ca [1] was 11.3 mg/dL and the DBIL [1] was 0.012 mg/dL. It also gave a GLC [1] of 188 mg/dL, an IP [1] of 9.3 mg/dL and a K [1] of 4.9 meq/L. It also gave an LDH [1] of 88.6 IU/L, a Na [1] of 139 meq/L and a PL [1] of 176.2 mg/dL. It also gave an RALB [1] of 4.1 g/dL, a TBIL [1] of 0.3 mg/dL and a TC [1] of 92 mg/dL. For the same compound, the TG [1] was 105.6 mg/dL, the TP [1] was 6 g/dL and the gamma-GTP [1] was 1.6 IU/L. It also gave a TERMINAL_BW [2] of 271.1 g, a TERMINAL_BW [3] of 301.4 g and a TERMINAL_BW [4] of 394 g. The APTT [2] was 15.4 s, the Bas [2] was 0% and the Eos [2] was 0.6%. The Fbg [2] was 235.6 mg/dL, the Hb [2] was 14.9 g/dL and the Ht [2] was 44.8%. For the same compound, the Lym [2] was 82.4%, the MCH [2] was 21.1 pg and the MCHC [2] was 33.2%. The MCV [2] was 63.6 fL, the Mono [2] was 5.8% and the Neu [2] was 11%. It also gave a PT [2] of 11.9 s, an RBC [2] of 705.6 x10_4/ul and a Ret [2] of 5.7%. The WBC [2] was 139.8 x10_2/uL, the APTT [3] was 16.2 s and the Bas [3] was 0%. The Eos [3] was 1%, the Fbg [3] was 224.8 mg/dL and the Hb [3] was 14.5 g/dL. For the same compound, the Ht [3] was 41%, the Lym [3] was 76.8% and the MCH [3] was 22.1 pg. For the same compound, the MCHC [3] was 37.1%, the MCV [3] was 59.7 fL and the Mono [3] was 8.4%. For the same compound, the Neu [3] was 14.4%, the PT [3] was 11.6 s and the Plat [3] was 101.3 x10_4/uL. It also gave an RBC [3] of 685.8 x10_4/ul, a Ret [3] of 3.8% and a WBC [3] of 148.2 x10_2/uL. For the same compound, the APTT [4] was 18 s, the Bas [4] was 0% and the Eos [4] was 1%. For the same compound, the Fbg [4] was 237.2 mg/dL, the Hb [4] was 15.5 g/dL and the Ht [4] was 46.8%. The Lym [4] was 83%, the MCH [4] was 19.6 pg and the MCHC [4] was 33.3%. For the same compound, the MCV [4] was 58.9 fL, the Mono [4] was 5.8% and the PT [4] was 11.9 s. For the same compound, the Plat [4] was 106.6 x10_4/uL, the RBC [4] was 795.4 x10_4/ul and the Ret [4] was 5.4%. The WBC [4] was 161 x10_2/uL, the KIDNEY_L [2] was 1.2 g and the KIDNEY_R [2] was 1.2 g. The KIDNEY_TOTAL [2] was 2.3 g, the KIDNEY_L [3] was 1.3 g and the KIDNEY_R [3] was 1.3 g. For the same compound, the KIDNEY_TOTAL [3] was 2.5 g, the KIDNEY_L [4] was 1.4 g and the KIDNEY_R [4] was 1.5 g. It also gave a KIDNEY_TOTAL [4] of 2.9 g, an LIVER [2] of 13.7 g and an LIVER [3] of 14 g. The LIVER [4] was 17.9 g, the ALP [2] was 818.4 IU/L and the ALT [2] was 37.4 IU/L. For the same compound, the AST [2] was 64.2 IU/L, the BUN [2] was 17.8 mg/dL and the CRE [2] was 0.5 mg/dL. The Ca [2] was 11.3 mg/dL, the DBIL [2] was 0.008 mg/dL and the GLC [2] was 183.8 mg/dL. It also gave an IP [2] of 8.6 mg/dL, a K [2] of 4.8 meq/L and an LDH [2] of 84.8 IU/L. It also gave a Na [2] of 138.6 meq/L, a PL [2] of 174 mg/dL and an RALB [2] of 4.1 g/dL. The TBIL [2] was 0.3 mg/dL, the TC [2] was 88.4 mg/dL and the TG [2] was 124.8 mg/dL. It also gave a TP [2] of 6.1 g/dL, a gamma-GTP [2] of 1.8 IU/L and an ALP [3] of 731.4 IU/L. The ALT [3] was 34.6 IU/L, the AST [3] was 65.8 IU/L and the BUN [3] was 16.4 mg/dL. The CRE [3] was 0.5 mg/dL, the Ca [3] was 10.5 mg/dL and the DBIL [3] was 0.02 mg/dL. It also gave a GLC [3] of 179.2 mg/dL, an IP [3] of 7.9 mg/dL and a K [3] of 4.8 meq/L. It also gave an LDH [3] of 103.2 IU/L, a Na [3] of 139.4 meq/L and a PL [3] of 159.4 mg/dL. For the same compound, the RALB [3] was 4.1 g/dL, the TBIL [3] was 0.3 mg/dL and the TC [3] was 77.6 mg/dL. The TG [3] was 139.8 mg/dL, the TP [3] was 6.2 g/dL and the gamma-GTP [3] was 1 IU/L. The ALP [4] was 625.2 IU/L, the ALT [4] was 39.8 IU/L and the AST [4] was 66.2 IU/L. It also gave a BUN [4] of 20.2 mg/dL, a CRE [4] of 0.6 mg/dL and a Ca [4] of 11 mg/dL. The DBIL [4] was 0.002 mg/dL, the GLC [4] was 183.2 mg/dL and the IP [4] was 7.3 mg/dL. For the same compound, the K [4] was 4.2 meq/L, the LDH [4] was 152.2 IU/L and the Na [4] was 140.2 meq/L. It also gave a PL [4] of 159.4 mg/dL, an RALB [4] of 4.2 g/dL and a TBIL [4] of 0.3 mg/dL. The TC [4] was 77.4 mg/dL, the TG [4] was 122.6 mg/dL and the TP [4] was 6.4 g/dL. For the same compound, the gamma-GTP [4] was 1.6 IU/L.
